Laboratory results published in ChEMBL document CHEMBL1201862, “PubChem BioAssay data set” (2004).
Active and inactive are the calls of the source.

Legend:
Coagulation factor XII = target: T1, Coagulation factor XII (Homo sapiens, UniProt P00748); type: functional;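 also: activated factor XIIa alpha cleaving a fluorogenic AMC peptide substrate; inhibitor potency from loss of enzyme activity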
T1 sequence (P00748 whole entry): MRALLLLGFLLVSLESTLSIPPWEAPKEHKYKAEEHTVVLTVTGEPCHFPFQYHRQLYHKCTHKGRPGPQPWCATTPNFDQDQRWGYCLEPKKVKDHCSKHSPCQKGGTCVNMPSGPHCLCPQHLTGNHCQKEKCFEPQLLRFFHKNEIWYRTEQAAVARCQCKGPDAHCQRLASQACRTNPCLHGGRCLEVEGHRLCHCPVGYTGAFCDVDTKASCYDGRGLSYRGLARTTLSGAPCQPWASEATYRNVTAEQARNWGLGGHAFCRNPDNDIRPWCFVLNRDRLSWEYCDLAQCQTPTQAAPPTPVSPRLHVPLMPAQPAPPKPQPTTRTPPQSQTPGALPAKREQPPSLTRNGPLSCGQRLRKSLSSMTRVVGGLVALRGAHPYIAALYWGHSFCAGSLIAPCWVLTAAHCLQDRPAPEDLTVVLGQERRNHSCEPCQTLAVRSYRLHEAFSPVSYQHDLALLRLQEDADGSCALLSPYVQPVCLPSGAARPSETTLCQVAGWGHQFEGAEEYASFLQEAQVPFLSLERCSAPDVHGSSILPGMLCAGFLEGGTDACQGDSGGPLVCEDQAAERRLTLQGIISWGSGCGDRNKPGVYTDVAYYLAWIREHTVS

Aminopeptidase N = target: T2, Aminopeptidase N (Plasmodium falciparum FcB1/Columbia, UniProt O96935); test: P. falciparum M1AAP inhibitors, biochemical, fluorogenic H-Leu-NHMec substrate, 1536-well (AID 1445); design: species or system Plasmodium falciparum 3D7, 3D7
T2 sequence (O96935 whole entry): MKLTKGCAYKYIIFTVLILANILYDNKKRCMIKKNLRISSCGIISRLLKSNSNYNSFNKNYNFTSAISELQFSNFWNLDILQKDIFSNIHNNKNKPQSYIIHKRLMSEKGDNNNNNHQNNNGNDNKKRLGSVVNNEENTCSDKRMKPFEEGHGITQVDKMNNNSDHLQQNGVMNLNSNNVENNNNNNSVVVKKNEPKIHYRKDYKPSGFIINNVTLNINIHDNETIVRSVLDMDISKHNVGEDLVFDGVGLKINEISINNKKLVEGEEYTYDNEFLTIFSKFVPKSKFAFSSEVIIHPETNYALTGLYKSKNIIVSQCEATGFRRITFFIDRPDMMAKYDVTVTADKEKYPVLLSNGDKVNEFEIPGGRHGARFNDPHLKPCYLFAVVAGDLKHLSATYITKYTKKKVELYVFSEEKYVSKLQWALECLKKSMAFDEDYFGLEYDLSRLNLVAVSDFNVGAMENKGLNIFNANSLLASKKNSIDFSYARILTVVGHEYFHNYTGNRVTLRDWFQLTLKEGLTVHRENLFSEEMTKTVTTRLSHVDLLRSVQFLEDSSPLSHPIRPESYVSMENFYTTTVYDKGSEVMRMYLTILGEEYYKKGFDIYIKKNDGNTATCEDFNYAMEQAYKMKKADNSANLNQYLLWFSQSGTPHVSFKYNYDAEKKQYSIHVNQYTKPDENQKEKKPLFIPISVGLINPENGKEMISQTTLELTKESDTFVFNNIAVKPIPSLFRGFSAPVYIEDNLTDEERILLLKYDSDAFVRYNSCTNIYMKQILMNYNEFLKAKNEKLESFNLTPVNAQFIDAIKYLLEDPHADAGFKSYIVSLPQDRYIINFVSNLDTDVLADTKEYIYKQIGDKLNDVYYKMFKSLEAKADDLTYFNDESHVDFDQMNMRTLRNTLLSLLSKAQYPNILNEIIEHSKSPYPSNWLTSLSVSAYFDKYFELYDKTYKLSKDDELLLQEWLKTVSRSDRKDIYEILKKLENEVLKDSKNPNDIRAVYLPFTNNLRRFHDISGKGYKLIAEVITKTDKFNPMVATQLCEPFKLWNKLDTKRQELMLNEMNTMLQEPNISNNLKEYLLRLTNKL

[1] = target: Peroxisome proliferator-activated receptor gamma/Nuclear receptor coactivator 3 (Homo sapiens, UniProt P37231); test: TR-FRET dose response biochemical High Throughput Screening assay for agonists of the steroid receptor coactivator 3 (SRC-3) recruitment by the peroxisome proliferator-activated receptor gamma (PPAR gamma): non-selective agonists. [Related pubchem assays: 1301 (Confirmation screen.), 1048 (Primary screen.)]; type: functional
[2] = target: Peroxisome proliferator-activated receptor gamma/Nuclear receptor coactivator 2 (Homo sapiens, UniProt P37231); test: (§1) TR-FRET dose response biochemical High Throughput Screening assay for agonists of the steroid receptor coactivator 2 (SRC-2) recruitment by the peroxisome proliferator-activated receptor gamma (PPAR gamma): non-selective agonists. [Related pubchem assays: 1297, 1032 ]; type: functional
[3] = target: Peroxisome proliferator-activated receptor gamma/Nuclear receptor coactivator 1 (Homo sapiens, UniProt P37231); test: as §1, with “1 (SRC-1)” for “2 (SRC-2)”, “assays (depositor defined):AID1300, AID1808, AID504735, AID631]” for “assays: 1297, 1032 ]”; type: protein assay
[4] = target: Eukaryotic translation initiation factor 4E (Mus musculus, UniProt P63073); test: eIF4E–eIF4G protein interaction inhibitors, dose response, biochemical, TR-FRET (AID 855); type: functional;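 also: potency for disrupting eIF4E binding to eIF4GI seen as loss of FRET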
Eukaryotic translation initiation factor 4E, sequence (P63073 whole entry): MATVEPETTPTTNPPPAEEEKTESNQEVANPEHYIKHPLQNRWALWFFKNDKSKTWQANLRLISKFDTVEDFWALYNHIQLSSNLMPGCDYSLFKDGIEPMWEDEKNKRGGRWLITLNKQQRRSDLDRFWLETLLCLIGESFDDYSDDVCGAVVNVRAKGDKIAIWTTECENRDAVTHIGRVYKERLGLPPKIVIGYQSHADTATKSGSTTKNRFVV

[5] = inhibitors of firefly luciferase expression or activity, dose response, H4 neuroglioma cells, luminescence (AID 1990); type: functional, cell-based
[6] = Luminescence Cell-Based Dose Response HTS to Identify Inhibitors of 5'UTR Stem-Loop Driven Prion Protein mRNA Translation in H4 Neuroglioblastoma Cells. [Related pubchem assays: 1827 (Project Summary), 1813 (Primary HTS)]; type: functional
[7] = inhibitors of SNCA 5'UTR-driven reporter translation, confirmation, H4 neuroglioma cells, luminescence (AID 1988); type: functional, cell-based
H9c2 = test: cells; type: functional, cell-based; details: Rattus norvegicus, H9c2, Myocardium;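 also: confirmatory concentration-response retest of ultra-high-throughput screening hits for modulation of myocardial damage; cell death induced by hydrogen peroxide oxidative stress; compound pretreatment for 60 min then peroxide exposure for 2 h; potency is for protecting the cells against peroxide damage rather than for killing them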
[8] = cytotoxicity in HEK-293T cells, dose response, cytotoxicity control for BCR NF-kB inhibitor project, luminescence, B-cell screen hits (AID 489021); type: functional, cell-based;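 also: HEK-293T cells carrying an NF-kB luciferase reporter; cells exposed to compound for about 14 hours before viability readout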
HeLa = test: HeLa cell cytotoxicity, dose response, cytotoxicity control, 24 h, cherry-picked samples (AID 504726); type: functional, cell-based; details: Homo sapiens;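 also: potency for cytotoxicity as loss of luminescence signal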
[9] = target: T3, RNA-binding protein pos-1 (Caenorhabditis elegans, UniProt G5EF15); test: inhibitors of POS-1/mex-3 RNA binding, dose response, biochemical, fluorescence polarization (AID 1964);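 also: purified POS-1 fused to maltose binding protein made in E. coli; potency of compounds blocking POS-1 binding to fluorescent RNA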
T3 sequence (G5EF15 whole entry): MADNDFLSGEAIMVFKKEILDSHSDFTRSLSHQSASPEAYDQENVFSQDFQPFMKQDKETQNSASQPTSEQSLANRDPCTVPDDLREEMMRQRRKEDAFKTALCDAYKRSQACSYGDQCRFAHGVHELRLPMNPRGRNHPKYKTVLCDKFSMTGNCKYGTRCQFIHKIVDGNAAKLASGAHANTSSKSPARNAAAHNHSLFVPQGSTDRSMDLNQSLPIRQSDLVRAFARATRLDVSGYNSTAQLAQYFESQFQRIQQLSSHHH

[10] = target: T4, Zinc finger protein mex-5 (Caenorhabditis elegans, UniProt Q9XUB2); test: MEX-5/TCR-2 RNA interaction inhibitors, dose response, biochemical, C. elegans, fluorescence polarization (AID 1960)
T4 sequence (Q9XUB2 whole entry): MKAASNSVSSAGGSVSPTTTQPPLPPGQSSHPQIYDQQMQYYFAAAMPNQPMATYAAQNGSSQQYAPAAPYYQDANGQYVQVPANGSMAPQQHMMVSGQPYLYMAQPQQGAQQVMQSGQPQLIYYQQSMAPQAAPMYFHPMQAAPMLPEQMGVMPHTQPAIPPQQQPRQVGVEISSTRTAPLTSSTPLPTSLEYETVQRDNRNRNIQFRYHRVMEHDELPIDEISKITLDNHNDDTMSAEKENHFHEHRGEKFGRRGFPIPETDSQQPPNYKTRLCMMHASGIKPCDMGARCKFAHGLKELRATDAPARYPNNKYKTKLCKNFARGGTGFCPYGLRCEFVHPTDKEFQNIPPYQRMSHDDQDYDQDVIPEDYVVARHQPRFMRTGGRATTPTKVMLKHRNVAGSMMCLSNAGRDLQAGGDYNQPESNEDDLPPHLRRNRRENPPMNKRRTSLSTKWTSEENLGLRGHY

[11] = target: G-protein coupled receptor 55 (Homo sapiens, UniProt Q9Y2T6); test: GPR55 agonists via beta-arrestin recruitment, primary screen, imaging, U2OS cells, beta-arrestin-GFP redistribution (AID 1961); type: functional
G-protein coupled receptor 55, sequence (Q9Y2T6 whole entry): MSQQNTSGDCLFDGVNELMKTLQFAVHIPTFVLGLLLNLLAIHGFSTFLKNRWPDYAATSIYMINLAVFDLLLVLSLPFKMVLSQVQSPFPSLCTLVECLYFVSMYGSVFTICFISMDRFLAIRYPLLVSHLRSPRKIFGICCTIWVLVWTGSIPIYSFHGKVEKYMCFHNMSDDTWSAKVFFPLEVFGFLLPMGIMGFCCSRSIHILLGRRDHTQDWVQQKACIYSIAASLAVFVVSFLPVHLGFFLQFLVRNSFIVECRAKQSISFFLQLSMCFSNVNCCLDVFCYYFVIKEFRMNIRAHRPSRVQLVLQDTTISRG

[12] = target: T5, Voltage-gated N-type calcium channel alpha-1B subunit/Amyloid beta A4 precursor protein-binding family A member 1 (Homo sapiens, UniProt Q00975+Q02410); type: protein assay
T5 sequence (Q00975 whole entry): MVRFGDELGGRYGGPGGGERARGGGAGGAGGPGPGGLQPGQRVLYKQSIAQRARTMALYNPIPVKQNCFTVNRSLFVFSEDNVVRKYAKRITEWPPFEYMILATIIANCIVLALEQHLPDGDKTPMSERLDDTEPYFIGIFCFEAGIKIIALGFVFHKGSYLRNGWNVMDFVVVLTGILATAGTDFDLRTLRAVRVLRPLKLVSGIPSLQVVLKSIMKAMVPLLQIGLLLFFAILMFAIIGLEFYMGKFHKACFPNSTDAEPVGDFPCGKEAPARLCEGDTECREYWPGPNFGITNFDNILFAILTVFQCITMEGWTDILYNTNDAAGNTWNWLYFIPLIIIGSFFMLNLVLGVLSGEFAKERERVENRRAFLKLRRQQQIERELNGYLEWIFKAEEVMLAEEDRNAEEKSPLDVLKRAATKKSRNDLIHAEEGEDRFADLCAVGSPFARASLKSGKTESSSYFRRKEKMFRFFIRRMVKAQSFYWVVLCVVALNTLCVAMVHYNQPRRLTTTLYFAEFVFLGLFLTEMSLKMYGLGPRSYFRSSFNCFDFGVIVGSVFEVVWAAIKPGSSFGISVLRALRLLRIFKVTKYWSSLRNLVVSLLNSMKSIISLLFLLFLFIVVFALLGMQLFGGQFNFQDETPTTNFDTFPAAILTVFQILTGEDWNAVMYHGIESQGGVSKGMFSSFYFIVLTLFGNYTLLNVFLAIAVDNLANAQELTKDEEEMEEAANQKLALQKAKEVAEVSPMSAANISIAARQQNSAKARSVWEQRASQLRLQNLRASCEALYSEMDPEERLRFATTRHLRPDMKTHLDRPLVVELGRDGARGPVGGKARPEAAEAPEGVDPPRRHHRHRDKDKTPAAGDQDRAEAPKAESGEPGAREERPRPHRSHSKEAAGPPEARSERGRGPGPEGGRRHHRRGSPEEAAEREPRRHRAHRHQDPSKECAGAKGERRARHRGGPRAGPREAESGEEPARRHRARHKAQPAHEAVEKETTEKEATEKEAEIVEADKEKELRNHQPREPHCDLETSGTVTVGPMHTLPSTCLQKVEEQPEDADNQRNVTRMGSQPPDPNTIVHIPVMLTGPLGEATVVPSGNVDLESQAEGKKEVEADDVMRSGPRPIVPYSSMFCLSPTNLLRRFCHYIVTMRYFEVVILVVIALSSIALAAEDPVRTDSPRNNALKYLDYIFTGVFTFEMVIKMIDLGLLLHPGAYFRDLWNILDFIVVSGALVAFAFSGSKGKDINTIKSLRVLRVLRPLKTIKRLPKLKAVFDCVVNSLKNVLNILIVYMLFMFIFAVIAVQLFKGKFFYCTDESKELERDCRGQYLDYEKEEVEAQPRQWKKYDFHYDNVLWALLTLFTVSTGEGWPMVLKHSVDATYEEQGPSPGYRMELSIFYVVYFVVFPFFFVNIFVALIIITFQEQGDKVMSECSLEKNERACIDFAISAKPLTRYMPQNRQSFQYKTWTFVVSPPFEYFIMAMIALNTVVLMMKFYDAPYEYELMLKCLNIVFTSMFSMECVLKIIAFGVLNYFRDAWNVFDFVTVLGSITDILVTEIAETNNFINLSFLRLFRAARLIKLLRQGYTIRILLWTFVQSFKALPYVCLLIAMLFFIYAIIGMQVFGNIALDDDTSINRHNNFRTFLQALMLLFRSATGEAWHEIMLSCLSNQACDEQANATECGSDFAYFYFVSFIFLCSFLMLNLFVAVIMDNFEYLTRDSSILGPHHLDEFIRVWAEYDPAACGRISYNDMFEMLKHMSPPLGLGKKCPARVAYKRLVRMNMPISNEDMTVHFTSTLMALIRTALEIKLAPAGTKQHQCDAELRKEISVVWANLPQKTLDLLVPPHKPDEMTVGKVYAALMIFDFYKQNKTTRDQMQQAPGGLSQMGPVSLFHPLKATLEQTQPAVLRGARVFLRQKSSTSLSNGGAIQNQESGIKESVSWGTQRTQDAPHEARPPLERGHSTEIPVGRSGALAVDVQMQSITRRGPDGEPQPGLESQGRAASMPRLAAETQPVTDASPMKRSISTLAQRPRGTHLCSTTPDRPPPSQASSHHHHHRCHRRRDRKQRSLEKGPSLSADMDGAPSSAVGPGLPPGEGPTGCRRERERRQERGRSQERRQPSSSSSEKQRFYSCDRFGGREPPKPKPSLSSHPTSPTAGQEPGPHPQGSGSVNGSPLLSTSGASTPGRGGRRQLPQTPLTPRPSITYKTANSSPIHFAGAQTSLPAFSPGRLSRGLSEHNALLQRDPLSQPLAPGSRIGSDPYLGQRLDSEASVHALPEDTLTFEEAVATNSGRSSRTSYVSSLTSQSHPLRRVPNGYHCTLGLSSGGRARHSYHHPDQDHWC
T5 sequence (Q02410 whole entry): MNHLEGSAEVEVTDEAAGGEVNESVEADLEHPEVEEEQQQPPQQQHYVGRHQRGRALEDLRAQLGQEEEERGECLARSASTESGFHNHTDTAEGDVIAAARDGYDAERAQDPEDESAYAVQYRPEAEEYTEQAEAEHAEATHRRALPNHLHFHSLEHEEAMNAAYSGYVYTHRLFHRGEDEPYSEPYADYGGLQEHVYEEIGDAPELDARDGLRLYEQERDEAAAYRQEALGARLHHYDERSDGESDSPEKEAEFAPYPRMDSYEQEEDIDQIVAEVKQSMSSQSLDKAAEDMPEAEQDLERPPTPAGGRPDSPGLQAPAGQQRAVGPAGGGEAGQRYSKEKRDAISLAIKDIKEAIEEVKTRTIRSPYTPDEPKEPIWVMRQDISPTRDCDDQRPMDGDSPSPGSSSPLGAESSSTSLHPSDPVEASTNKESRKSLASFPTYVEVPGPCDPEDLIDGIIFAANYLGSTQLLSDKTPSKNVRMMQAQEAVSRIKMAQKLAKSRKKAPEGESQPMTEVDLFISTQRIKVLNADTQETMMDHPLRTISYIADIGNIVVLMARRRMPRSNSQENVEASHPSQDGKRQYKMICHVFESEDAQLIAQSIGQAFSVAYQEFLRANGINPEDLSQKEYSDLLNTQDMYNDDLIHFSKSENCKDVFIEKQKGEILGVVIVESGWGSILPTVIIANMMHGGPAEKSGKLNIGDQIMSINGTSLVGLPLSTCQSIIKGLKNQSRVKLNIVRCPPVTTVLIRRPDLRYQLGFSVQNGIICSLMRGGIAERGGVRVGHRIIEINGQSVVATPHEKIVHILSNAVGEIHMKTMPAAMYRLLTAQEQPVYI

[13] = target: T5, Voltage-gated N-type calcium channel alpha-1B subunit/Amyloid beta A4 precursor protein-binding family A member 1; type: protein assay; remark: listed apart in the source
HEK293 [14] = test: cells; details: Homo sapiens
HEK293 [15] = test: cells; details: Homo sapiens; remark: listed apart in the source

SMILES: CCOC(=O)c1cn(Cc2ccccc2)nn1
- IC50 (Coagulation factor XII): > 50 µM (inactive)

SMILES: O=C(/C=C/c1cccs1)NC(=S)Nc1ccc(C(=O)O)cc1
- IC50 (Aminopeptidase N): 28.8 µM (active)

SMILES: O=C(C1=C(O)C(=O)N(CCCN2CCOCC2)C1c1ccncc1)c1cc2ccccc2o1 (stereo unspecified)
- EC50 [1]: > 79.4 µM (not active)
- EC50 [2]: > 79.4 µM (not active)
- EC50 [3]: > 79.4 µM (inactive)

SMILES: Cc1ccccc1CSc1nncn1N
- IC50 [4]: > 64 µM (inactive)

SMILES: CCOC(=O)C1=NN(C(=O)c2cccc(Br)c2)C(O)(C(C)(C)C)C1 (stereo unspecified)
- IC50 (Aminopeptidase N): 44 µM (active)

SMILES: COc1cc(OC)cc(-c2cc3nc(C)c(CCC(=O)Nc4nc(C)cs4)c(C)n3n2)c1
- EC50 [5]: 16.9 µM (active)
- EC50 [6]: 13.2 µM (active)
- EC50 [7]: 24.2 µM (active)
- IC50 (H9c2): > 79 µM (inactive)
- IC50 [8]: > 80 µM (inactive)

SMILES: CCN1/C(=C2/SC(=S)N(NC(C)=O)C2=O)Sc2ccc(OC)cc21
- AC50 (HeLa): 122 µM (active)
- EC50 [9]: > 300 µM (not active)
- EC50 [10]: > 300 µM (not active)

SMILES: CCc1cccc(OCC(=O)Nc2cc(S(=O)(=O)N3CCOCC3)ccc2N2CCCC2)c1
- EC50 [11]: 4.03 µM (active)

SMILES: O=c1oc2c(CN3CCCCC3)c(O)ccc2c2c1CCCC2
- IC50 (Aminopeptidase N): 65.3 µM (active)

SMILES: COC(=O)c1ccc(OCC(O)CN2CCC(C)CC2)cc1 (stereo unspecified)
- AC50 (HeLa): 124 µM (active)

SMILES: O=C(CC1CCCCC1)NCC1CCCO1 (stereo unspecified)
- IC50 [4]: > 64 µM (inactive)

SMILES: COc1ccc(C(=O)NC(=S)Nc2ccc(NC(=O)c3ccco3)cc2)cc1[N+](=O)[O-]
- IC50 [12]: > 50 µM (inactive)
- IC50 [13]: 11.9 µM (active)

SMILES: CCc1cc2c(=O)c(Oc3ccccc3F)c(C)oc2c(CN(C)C)c1O
- IC50 [12]: > 50 µM (inactive)
- IC50 [13]: 1.5 µM (active)

SMILES: COc1ccc(CCNC(=O)Cn2cnc3c(cnn3-c3ccccc3Cl)c2=O)cc1OC
- IC50 [4]: > 64 µM (inactive)

SMILES: Fc1ccc(-c2csc3ncnc(Nc4ccc(N5CCOCC5)cc4)c23)cc1
- EC50 (HEK293 [14]): > 59.6 µM (inactive)
- EC50 (HEK293 [15]): > 59.6 µM (inactive)

SMILES: COC(=O)c1ccc(C2C(C(=O)c3cc4ccccc4o3)=C(O)C(=O)N2CCCN(C)C)cc1 (stereo unspecified)
- EC50 [1]: > 79.4 µM (not active)
- EC50 [2]: 51.9 µM (not active)
- EC50 [3]: > 79.4 µM (inactive)

SMILES: CN1CCN(c2ncnc(Cl)c2N)CC1
- IC50 (Coagulation factor XII): > 50 µM (inactive)

SMILES: O=C(O/N=C(\c1ccccc1)c1ccccn1)c1cccc2ccccc12
- EC50 [11]: > 32 µM (inactive)
